Test results from patent US20260364056A1, “METHODS OF TREATMENT OF NON-PANCREATIC GASTROINTESTINAL CANCERS” (IONCTURA bv, priority 2023, published 2026).

Assays:
[1] = tested on: HLF cells; test: Cell viability assay (crystal violet); assay type: cell-based
Experimental: Human colorectal adenocarcinoma HT29 and Caco-2 cells, hepatocellular carcinoma HLE cells, cholangiocarcinoma RBE and KKU-M213 cells were purchased from the American […] Culture Collection (ATCC, Manassas, VA, USA). The hepatocellular carcinoma cell line HLF was purchased from JCRB Cell Bank (Japan). All cell lines were cultured in Dulbecco's Modified Eagle Medium (DMEM) supplemented with 10% foetal bovine serum (FBS), 1 mM pyruvate, 25 mM HEPES, 100 U/mL penicillin-streptomycin (all from Thermo Fisher Scientific, Waltham, MA, USA), and maintained in a humidified atmosphere at 37 °C containing 5% CO2. The medium was changed every three days. Oleoyl-LPA was purchased from Avanti Polar Lipids (Birmingham, AL).
Cells were seeded in 96-well plates at a density of 2000 cells/well in 10% FBS supplemented medium. After 24 h, medium was removed, the cells washed with PBS and cultured in the presence or absence of FBS and of different concentrations of Compound land LPA. After the time set for the experiment, the cells were fixed with a 4% PFA solution and stained with 0.02% crystal violet for 10 min. Subsequently the plates have been washed with water to remove excess dye. The cell-bound dye was redissolved in 1% SDS and the optical density was measured at λ=570 with a iMark™ Microplate Absorbance Reader (Bio-rad).
FIGS. 2A and 2B show the effect of Compound 1 on cell proliferation in the absence of FBS and in the presence of 10% FBS. […] Cells were grown in serum free culture medium or in presence of 10% FBS and incubated with increasing Compound 1 concentrations or with DMSO (control cells) for 24, 48 and 72 hours. After fixation, proliferation was assessed by crystal violet staining method. *P<0.05.
To evaluate the anti-proliferative/cytotoxic effects of Compound 1, six different cancer tumour cell lines were treated developed from cholangiocarcinoma (CCA), hepatocellular carcinoma (HCC) and colorectal cancer (CRC), with increasing concentration of the Compound 1 ranging from 10 μM up to 50 μM and at different times of incubation. […]

[2] = tested on: HLE cells; test: Annexin V staining (early apoptosis); assay type: cell-based, human; conditions: 9 and 12 mM (so in the source), 4 h, serum-free; same effect = significantly (p<0.05) induced cell apoptosis
Experimental: (§1) For detection of early apoptosis the Annexin V-FITC kit (Miltenyi Biotech) was used. Cells were seeded and grown on Nunc Lab-Tek II Chamber Slide. After a wash with PBS, cells were incubated with Compound 1 3, 9 and 12 μM in serum-free medium. After […] cells were washed with Binding Buffer (BB) and stained with a solution of Annexin V-FITC antibody in BB for 15′. After 2 washes with BB the cells were fixed with a 4% paraformaldehyde solution and a coverslip was mounted onto the slide using a DAPI Ready Made Solution with Antifade (Merck). Images were acquired using a confocal microscope Nikon Eclipse Ti2 and analysed with image-J.
(§2) Fluorescence microscopy of cells treated with 3, 9 and 12 μM Compound 1 for 4 h and stained with Annexin V-FITC antibody. Annexin V positive cells are early apoptotic cells. Green fluorescence (Annexin V) was quantified using ImageJ software and correlated to DAPI blue fluorescence (nuclei).
(§3) To further explore the activity of Compound 1 on gastrointestinal cancer cells, the effectiveness on cell apoptosis was investigated. Following incubation with Compound 1, cells underwent morphological changes of cell shrinkage and cytoplasmic vacuolization (FIG. 1C). An early event in apoptosis is represented by the loss of plasma membrane asymmetry, resulting in the translocation of phosphatidylserine (PS) from the inner to the outer plasma membrane leaflet. Exposed PS on the cell surface can be used to measure apoptosis by the binding with Annexin V. KKU-M213, HLE and HT-29 cells were incubated with increasing concentrations of Compound 1 (3, 9 and 12 μM). After 4 hours, cells were stained with a FITC-Annexin V antibody and fixed. […] Moreover, a human apoptosis antibody array was used to identify the differential expression of 43 apoptosis-related proteins in cells treated with 12 μM Compound 1 for 24 h compared to untreated cells.

[3] = tested on: HT-29 cells; test: Annexin V staining (early apoptosis); assay type: cell-based, human; conditions: 3, 9 and 12 mM (so in the source), 4 h, serum-free, dose dependent
Experimental: as §1, §2, §3

[4] = tested on: KKU-M213 cells; test: Annexin V staining (early apoptosis); assay type: cell-based, human; conditions: 3, 9 and 12 mM (so in the source), 4 h, serum-free, dose dependent
Experimental: as §1, §2, §3

[5] = tested on: Intrahepatic cholangiocarcinoma cancer cells (patient-derived organoid cultures); test: Patient-derived organoid formation/growth; assay type: cell-based; conditions: 3, 9 and 12 μm (so in the source), 14 days, compared to vehicle, P<0.001
Experimental: To further explore the activity of Compound 1 on gastrointestinal cancer cells, the effectiveness on organoid formation was investigated. Intrahepatic cholangiocarcinoma cancer cells were isolated from tumour tissues, counted and embedded in 96-well plate with Matrigel. After 3D-model formation, three different concentrations of Compound 1 (3, 9 and 12 μm) were tested in these patient-derived organoid (PDO) cultures. […] Scale bars correspond to 50 μm, Data are presented as the mean±SD; ***P<0.001.

[6] = tested on: xenografted tumours of KKUM-213 cells and human cancer-associated fibroblasts; test: Tumour growth in vivo, mouse xenograft model of cholangiocarcinoma; conditions: 10 mg/kg twice daily, oral gavage, from 5th day, vs vehicle, n=5, Mann-Whitney P<0.05
Experimental: To further explore the activity of Compound 1 on gastrointestinal cancer cells in vivo, the effectiveness in a mouse model of cholangiocarcinoma was investigated. Xenografted tumours were produced by co-injection of KKUM-213 cells and human cancer-associated fibroblasts (CAFs). Starting from the 5th day the mice were treated twice daily with Compound 1 (10 mg/kg) or vehicle (1% (w/v) methylcellulose in water) by oral gavage. The tumour volumes were monitored twice a week until the animals were sacrificed. […] Data are presented as the mean±SD (n=5 mice per group; Mann-Whitney test:*P<0.05).

[7] = tested on: ATX; conditions: cited from earlier work
[8] = tested on: lung fibrosis; conditions: compared with GLPG1690; cited from earlier work
[9] = tested on: ATX; conditions: cited from earlier work; remark: listed apart in the source

C[C@H](NC(=O)CCc1nc2cccnc2n1Cc1ccc(OC(F)(F)F)cc1)c1ccc(Cl)cc1 [Compound 1, N-[(S)-1-(4-chloro-phenyl)-ethyl]-3-[3-(4-trifluoromethoxy-benzyl)-3H-imidazo[4,5-b]pyridin-2-yl]-propionamide]
effect on cell proliferation ([1]; 1 μM up to 12 μM, 10% FBS, 24, 48 and 72 h): generally the same as the control | cytotoxic effect / inhibition of cell proliferation ([1]; 3 to 12 μM, absence of FBS, evident after 48 h, stronger after 72 h): significant (p<0.05) cytotoxic effect in a dose-dependent manner | cytotoxic effect ([1]; 30 to 50 μM, medium with 10% FBS): significant (p<0.05) cytotoxic effect | induction of cell apoptosis (Annexin V) [2]: the same effect was seen | induction of cell apoptosis (Annexin V) [3]: significantly (p<0.05) induced cell apoptosis | induction of cell apoptosis (Annexin V) [4]: significantly (p<0.05) induced cell apoptosis | organoid growth inhibition [5]: significant organoid growth inhibition | tumour progression (tumour volume) [6]: significantly reduces tumour progression | ATX inhibition [7]: inhibits ATX with high selectivity | reduction in fibrosis score [8]: greater reduction in fibrosis score compared with GLPG1690 | binding site on ATX [9]: does not bind to the catalytic zinc region of ATX but binds to both the substrate pocket and the LPA carrier channel
